{
  "source": "patent US20230324392A1",
  "about": "“METHODS AND COMPOSITIONS FOR TARGETING CYTOSOLIC DSDNA SIGNALING IN CHROMOSOMALLY UNSTABLE CANCERS” (MEMORIAL SLOAN KETTERING CANCER CENTER, priority 2020, published 2023)",
  "key": {"[1]": {"tested_on": "4T1 cells", "test": "Tail vein inoculation of 4T1 cells in BALB/c mice, survival", "assay_type": "in vivo, mouse", "conditions": "4T1, BALB/c, daily IP, vs vehicle", "method": "(§1) Animal metastasis studies: Animal experiments were performed in accordance with protocols approved by the MSKCC Institutional Animal Care and Use Committee. […] There was no need to randomize animals. Investigators were not blinded to group allocation. For tail vein injections, 5×10^4 4T1, 2.5×10^4 B16F10, or 10^5 CT26 cells were injected into the tail vein of 6-7-week old BALB/c (4T1 and CT26) or C57BL/6 (B16F10) mice. Metastasis was primarily assessed through overall survival. Overall survival endpoint was met when the mice died or met the criteria for euthanasia under the IACUC protocol. […] Surface lung metastases were assessed at endpoint by direct visual examination after euthanasia at which points lungs were perfused and fixed in 4% paraformaldehyde (4T1 and B16F10 experiments) or stained using India-ink (CT26 experiments). Furthermore, lung metastasis after injection of 4T1 cells was qualitatively assessed using routine hematoxylin and eosin (H&E) staining. […] Primary tumors were surgically excised on day 7 after implantation and metastatic dissemination was assessed by monitoring overall survival or on day 30 through quantification of surface lung metastases upon euthanasia. The length (L) and width (W) of the primary tumors were measured using calipers. Tumor size was calculated according to the following formula: L*W2/2. […]"}, "[2]": {"test": "Tolerability of prolonged daily C-176 treatment, survival and necropsy", "assay_type": "in vivo, mouse", "source_text": "In B16F10-bearing animals, nearly 30% of the treated group had no evidence of disease at 98 days (FIG. 4A). […] Thus, the therapeutic effect of the STING inhibitors on metastasis is primarily mediated through inhibition of cancer cell-intrinsic STING."}, "[3]": {"tested_on": "4T1 primary tumor", "test": "Orthotopically transplanted primary 4T1 tumors, tumor size", "assay_type": "in vivo, mouse", "conditions": "orthotopic, vs vehicle", "method": "as §1"}, "[4]": {"tested_on": "B16F10 cells", "test": "Tail vein inoculation of B16F10 cells in C57BL/6 mice, survival", "assay_type": "in vivo, mouse", "method": "as §1"}, "[5]": {"tested_on": "B16F10, 4T1, and CT26 cells", "test": "xCELLigence assay for cell invasion", "assay_type": "cell-based, mouse", "conditions": "C176 at 1 μM; all three metastatic cancer cell lines", "method": "xCELLigence assayfor cell invasion: Assessment of the impact of STING inhibition on cell invasion was conducted using the xCELLigence system CIM plates (ACEA Biosciences, San Diego, CA). The upper chamber was coated with 1 mg/ml of growth factor complete Matrigel (#356234, Corning, UK) made up in serum free media (SFM) and incubated at 37° C. for 4 hours to allow polymerisation. A total of 4×10^4 cells in serum-free media were seeded into the upper chamber insert with C176 at 1 μM (Probechem, China) or DMSO control. The lower chamber was filled with complete media. The CIM plates were incubated at 1 hour at 37° C. and 5% C02 for cell attachment. Plates were then monitored using the xCELLigence system. Changes in impedance resulting from cell invasion to the underside of wells were recorded every 15 minutes and monitored for a total of 60 hours."}, "[6]": {"target": "T1, STING (Mus musculus, UniProt Q3TBT3)", "T1 construct": "endogenous in cells; host or cells: Cgas-KO 4T1 cells (mouse mammary carcinoma; parental line from ATCC)", "T1 sequence (Q3TBT3 1-378)": "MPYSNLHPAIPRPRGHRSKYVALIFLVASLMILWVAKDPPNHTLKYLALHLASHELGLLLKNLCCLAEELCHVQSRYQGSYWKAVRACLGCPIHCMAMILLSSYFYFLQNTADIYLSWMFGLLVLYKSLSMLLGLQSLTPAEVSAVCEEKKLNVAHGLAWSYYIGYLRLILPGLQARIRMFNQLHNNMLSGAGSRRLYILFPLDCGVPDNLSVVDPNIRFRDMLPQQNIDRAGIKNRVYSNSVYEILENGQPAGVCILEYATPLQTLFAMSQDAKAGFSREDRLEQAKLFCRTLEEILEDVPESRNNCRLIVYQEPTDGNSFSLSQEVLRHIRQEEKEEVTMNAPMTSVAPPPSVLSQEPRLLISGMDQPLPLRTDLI", "test": "ISG expression in cGAMP-transfected Cgas-KO 4T1 cells with or without C-176", "assay_type": "cell-based", "conditions": "in the presence of C-176", "quoted_text": "Quantitative PCR for STING inhibition study: RNA was extracted from cells with Trizol (Invitrogen, Carlsbad, CA, #15596026). cDNA was synthesized using the RNA to cDNA EcoDry™ Premix (Double Primed) kit (Takara #639549). Real-time PCR was performed to measure the relative mRNA expression levels of ISGs and the control GAPDH using Luna® Universal qPCR Master Mix (NEB, IPSWICH, MA, M3003L). The qPCR reaction and analysis were performed on a QuantStudio 6 platform (Life technology, Carlsbad, CA). The sequence of primers for Ccl5 is 5′-[sequence]-3′ and 5′-[sequence]-3′. […] The sequence for primers for Gapdh is 5′-[sequence]-3′ and 5′-[sequence]-3′."}, "[7]": {"tested_on": "B16F10, 4T1 or CT26 cells", "test": "Cell proliferation assay", "assay_type": "cell-based, mouse", "conditions": "C176 at 1 μM; 12-48 hours", "method": "Cell proliferation assay: Cell proliferation was determined by seeding of 5×10^3 B16F10, 4T1 or CT26 cells in 6 well plates in triplicate. Cells were treated with C176 at 1 μM (Probechem, China) or DMSO control. Thereafter cells were counted in triplicate at 12, 24, 36, and 48 hours using trypan blue staining and the EVE™ automated cell counter (NanoEnTek, South Korea)."}, "[8]": {"tested_on": "CT26 cells", "test": "Tail vein inoculation of CT26 cells in BALB/c mice, metastasis and survival", "assay_type": "in vivo, mouse", "quoted_text": "Animal metastasis studies: Animal experiments were performed in accordance with protocols approved by the MSKCC Institutional Animal Care and Use Committee. […] There was no need to randomize animals. Investigators were not blinded to group allocation. For tail vein injections, 5×10^4 4T1, 2.5×10^4 B16F10, or 10^5 CT26 cells were injected into the tail vein of 6-7-week old BALB/c (4T1 and CT26) or C57BL/6 (B16F10) mice. Metastasis was primarily assessed through overall survival. Overall survival endpoint was met when the mice died or met the criteria for euthanasia under the IACUC protocol. Animals were censored when death was confirmed to have occurred due to metastasis-unrelated causes such as injury or death during injection, surgery, or anesthesia. Surface lung metastases were assessed at endpoint by direct visual examination after euthanasia at which points lungs were perfused and fixed in 4% paraformaldehyde (4T1 and B16F10 experiments) or stained using India-ink (CT26 experiments). […] H-151 was reconstituted in DMSO with concentration of 100 mM. Each mouse was injected intraperitoneally with 7.5 μL of H-151 stock solution in 200 μL of PBS with 0.1% Tween −80."}, "[9]": {"tested_on": "STING-KO B16F10 cells", "test": "Tail vein inoculation of STING-KO B16F10 cells in C57BL/6 mice, survival", "assay_type": "in vivo, mouse", "conditions": "C57BL/6 mice inoculated with STING-KO B16F10 cells", "method": "as §1"}},
  "data": [
    {"smiles": "O=C(Nc1ccc(I)cc1)c1ccc([N+](=O)[O-])o1", "note": "[C-176]", "values": [
      {"measurement": "survival of tumor bearing mice", "setting": "[1]", "value": "significantly prolonged survival"},
      {"measurement": "end-of-treatment necropsy", "setting": "[2]; compared to vehicle-treated animals", "value": "no distinct pathologic abnormalities"},
      {"measurement": "tolerability / clinically evident toxicity", "setting": "[2]; prolonged daily treatment, vs vehicle-treated animals", "value": "well tolerated and did not lead to any clinically evident toxicity"},
      {"measurement": "blood counts and blood chemistries", "setting": "[2]; summary of Tables 9 and 10", "value": "within normal limits"},
      {"measurement": "baseline cortisol levels", "setting": "[2]; vs vehicle", "value": "lower baseline cortisol levels"},
      {"measurement": "4T1 primary tumor size", "setting": "[3]", "value": "did not have a significant impact"},
      {"measurement": "survival of tumor bearing mice", "setting": "[4]; B16F10, C57BL/6, daily IP, vs vehicle", "value": "significantly prolonged survival"},
      {"measurement": "treated group with no evidence of disease", "setting": "[4]; B16F10-bearing animals, at 98 days", "value": "~30", "unit": "%"},
      {"measurement": "invasion", "setting": "[5]", "value": "significant reductions"},
      {"measurement": "effect on ISG induction by cGAMP transfection", "setting": "[6]", "value": "suppressed"},
      {"measurement": "cellular proliferation", "setting": "[7]", "value": "did not impact cellular proliferation"},
      {"measurement": "number of CT26 lung metastasis", "setting": "[8]; 13 days after tail vein injection, daily IP", "value": "significant reduction"},
      {"measurement": "survival of tumor bearing mice", "setting": "[8]; CT26, BALB/c, IP, vs vehicle", "value": "significantly prolonged survival"},
      {"measurement": "survival advantage beyond STING KO", "setting": "[9]", "value": "did not provide an additional survival advantage"}
    ]}
  ]
}
